{"source": "patent US12070452B2", "about": "“Compounds targeting HSP110 protein for cancer treatment” (INSERM (Institut National de la Santé et de la Recherche …, priority 2018, dated 2024)", "key": {"CT26 cells": {"test_system": "CT26 cells", "experiment": "Flow cytometric analysis of cell death (Annexin V / 7-AAD) in CT26 cells", "type": "cell-based, mouse", "settings": "10 μM, 96 h", "experimental": "FIG. 5A: Flow cytometric analysis of cell death in CT26 cells treated with the compound 33 (at the bottom left), compound 52 (at the bottom middle), comparative compound 61 (at the bottom right) at 10 μM during 96 h compared with Control (DMSO) (at the top left), and Cisplatin (at the top middle and top right). Live cells were double negative for 7-AAD (Y axis) and Annexin V (X axis), early apoptotic cells were positive for Annexin V, late apoptotic cells were positive for Annexin V and 7-AAD ([…]) and dead cells were positive for 7-AAD only.\nFIG. 5B: Quantification of cell viability (in percentage) from flow cytometry data are represented (Control, cells, compounds 33, 52 and 61 from the left to the right bars). (Abscissa Negativity of 7-AAD; Ordinate Negativity of Annexin V).\nWe then analyzed cell death in CT26 cells treated with 10 μM during 96 h of compounds 33, 52 and 61 by flow cytometry. Cells were also treated with a well know anti-cancer compound, called cisplatin. Cells were marked for 7-aminoactinomycin D, which exclusively bind on death cells and for Annexin V, a well-known indicators of early stage apoptosis, thanks to its ability to bind to phosphatidylserine."}, "NFκB signaling pathway": {"test_system": "NFκB signaling pathway", "experiment": "Western blot of NFκB signaling and Myd88 in DLBCL cell lines", "type": "cell-based, human", "settings": "for IkB phosphorylation (P-IKB): two DLBCL cell lines, 24 h of treatment", "experimental": "FIG. 10B: Expression of HSP110 (first line), P-P65 (S276) (second line), P65 (third line), Myd88 (fourth line) and Actin (fifth line) in TMD8 human B cell lymphoma cell line (left part of FIG. 10B) or in HBL1 human diffuse large B-cell lymphoma cell line (right part of FIG. 10B), both cell lines being treated with Control (DMSO) and compound 33.\nFIG. 10C: Expression, after 24 h of treatment, of HSP110 (first line), P-IKB (second line), IKB (third line) and Actin (fourth line) in TMD8 human B cell lymphoma cell line (right part of FIG. 10C) or in OCI-Ly3 human diffuse large B-cell lymphoma cell line (left part of FIG. 10C), both cell lines being treated with Control (DMSO), control compound 61, compound 52 and compound 33."}, "human protein HSP110": {"molecular_target": "T1, human protein HSP110 (Homo sapiens, UniProt Q92598)", "T1 construct": "DNA coding the NBD-HSP110 (from human-HSP110)", "T1 sequence (Q92598 whole entry, looked up)": "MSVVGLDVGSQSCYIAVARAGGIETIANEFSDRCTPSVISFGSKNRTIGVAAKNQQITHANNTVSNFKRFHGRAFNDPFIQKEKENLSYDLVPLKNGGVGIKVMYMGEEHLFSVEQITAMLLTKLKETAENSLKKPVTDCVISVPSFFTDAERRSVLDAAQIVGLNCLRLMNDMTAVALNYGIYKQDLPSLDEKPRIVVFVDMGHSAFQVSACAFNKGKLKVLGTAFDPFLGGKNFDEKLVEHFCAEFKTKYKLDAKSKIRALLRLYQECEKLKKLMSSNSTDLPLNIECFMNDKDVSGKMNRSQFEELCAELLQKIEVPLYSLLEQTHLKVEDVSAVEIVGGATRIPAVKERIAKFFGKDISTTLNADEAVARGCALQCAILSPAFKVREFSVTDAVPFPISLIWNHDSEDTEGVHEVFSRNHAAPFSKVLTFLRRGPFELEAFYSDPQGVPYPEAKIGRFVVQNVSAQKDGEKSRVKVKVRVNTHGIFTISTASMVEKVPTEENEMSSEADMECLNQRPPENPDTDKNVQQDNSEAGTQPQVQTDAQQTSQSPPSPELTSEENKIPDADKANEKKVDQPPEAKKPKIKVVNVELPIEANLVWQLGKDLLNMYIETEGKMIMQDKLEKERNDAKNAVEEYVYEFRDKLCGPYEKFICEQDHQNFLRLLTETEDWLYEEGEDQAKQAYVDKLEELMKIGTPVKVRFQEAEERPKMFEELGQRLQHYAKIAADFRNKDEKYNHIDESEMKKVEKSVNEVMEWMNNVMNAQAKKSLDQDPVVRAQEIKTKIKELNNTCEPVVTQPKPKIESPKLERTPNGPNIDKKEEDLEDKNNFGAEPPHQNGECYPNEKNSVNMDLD", "experiment": "HSP110 anti-aggregation function (luciferase substrate test)", "type": "biochemical", "settings": "human HSP110 1.5 μM with firefly luciferase, 30 min at 42° C.; read-out: IC50 of HSP110 anti-aggregating activity", "experimental": "Anti-aggregation function of HSP110 was evaluated as described by O H et al (The Journal of biological chemistry 274, 15712-15718 (1999)). The human protein HSP110 (obtained as described above) at a concentration of 1.5 μM was incubated with firefly luciferase (from Sigma—from Photinus pyralis) in reaction buffer and heated in water bath for 30 min at 42° C.\nCompounds of the present invention were added in reaction buffer to achieve the indicated concentrations and the final DMSO concentration was held constant at 1%. The heated reaction was diluted 10 times into buffer containing 60% of rabbit reticulocytelysate and incubated for 2 hours. The luciferase activity was measured by diluting 5 times the solution in HEPES and adding 5 μL of the solution in luciferase substrate (50 μL of Luciferase Assay System—Promega E1501 diluted in HEPES). The bioluminescence was reading with Envision Perkin Elmer.\nThe percentage of activity (x) was calculated by using the following equation: x=[(A−B)/(C−B)]×100, where (A) is the luciferase luminescence in presence of compounds of the invention, (B) in absence of HSP110 and (C) in presence of DMSO (Control). The percentage of total folding HSP110-promoted (mean=36%) was calculated considering as 100% the luminescence of luciferase incubated with HSP110 without heat shock. The IC50 were calculated from the dose-response curves, which were fitted by GraphPrism (Equation: Y=100/(1+10^((Log IC50−X)*HillSlope))."}, "phosphorylated STAT3": {"test_system": "phosphorylated STAT3", "experiment": "P-STAT3 level in SW480 cells (immunoblot quantification)", "type": "cell-based, human", "settings": "10 μM, 48 h, normalized by actin", "experimental": "Results for SW480 cells treated during 48 h with non-relevant antibody (called NT), compound 52, compound 33, compound 51 and comparative compound 61 at 10 μM, and sh110 cells correspond to the third fourth, fifth, sixth and last columns from the left to the right.\nFIG. 3B: Quantification of P-STAT3 level (in percentage) normalized by actin. […] (Ordinate: Percentage of P-STAT3 level (scale 50)\nImmunoprecipitation test were realized on human colorectal cancer cells (SW480 and HCT116 cell lines), using a control depleted in HSP110 called Sh110 and a not depleted cells in HSP110. STAT3 phosphorylation is then […] by compounds 33 and 52. Depletion of HSP110 in the negative control blocked the phosphorylation of STAT3 without affecting STAT3 overall levels (FIGS. 2 and 3)."}, "SW480 cells": {"test_system": "SW480 cells", "experiment": "Cell proliferation, Cell Trace Violet flow cytometry, SW480", "type": "cell-based, human", "settings": "SW480 cells with shRNA control, 10 μM, 96 h", "experimental": "FIG. 4A: Relative quantification of cell proliferation in SW480 cells transfected with shRNA for shRNA control (shCtrl) (from the first to the fourth columns from left to right) or HSP110-silencing (sh110) (from the fifth to the last columns, from left to right) treated with Ctrl (DMSO), compound 33, compound 52, and comparative compound 61 at a concentration of 10 μM during 96 h (Histogram columns from the left to the right). Ordinate: Percentage of SW480 cell proliferation (scale 20) for the upper figure; Statistical analysis has been performed by ANOVA **: (p<0.05); ***: p<0.005. Western blot of HSP110 and actin (first and second line of blots) for the shCtrl SW480 cells and sh110 SW480 cells (first and second columns).\nColorectal cells lines were purchased from the American Type Culture Collection. CT-26 and HCT116 were cultured in Roswell Park Memorial Institute 1640 medium. […]\nProliferation was determined by staining cells with Cell Trace Violet (Invitrogen-C34557) according to the manufacturer's procedure. Cell divisions were detected over 96 h by flow cytometry (LSRII cytometer) and the number of cell generations was estimated by ModFit software. […]"}}, "note": "“Also recorded” adds a separate entry of the source.", "data": [{"compound": "COc1cc(-c2cnc(-c3cnc(-c4cc(OC)c(OC)c(OC)c4)c(C)c3)c(/C=C/c3ccccc3)c2)cc(OC)c1OC", "note": "[compound 52, (E)-5′-Methyl-3-styryl-5,6′-bis(3,4,5-trimethoxyphenyl)-2,3′-bipyridine]", "values": [{"measurement": "cell death / apoptosis (Annexin V and 7-AAD marking)", "setting": "CT26 cells", "result": "don't seem to be marked; also recorded: does not allow detecting significally apoptosis"}, {"measurement": "NFκB signaling pathway (P-p65)", "setting": "NFκB signaling pathway; TMD8 and HBL1 DLBCL cell lines", "result": "strong decrease"}, {"measurement": "IkB phosphorylation (P-IKB)", "setting": "NFκB signaling pathway", "result": "decrease"}, {"measurement": "IC50", "setting": "human protein HSP110", "result": "86 ± 1.5", "unit": "µM"}, {"measurement": "P-STAT3 level", "setting": "phosphorylated STAT3", "result": "about 20%"}, {"measurement": "hampering of cell proliferation", "setting": "SW480 cells", "result": 82, "unit": "%"}]}, {"compound": "COc1ccc(-c2ncc(-c3ncc(-c4cc(OC)c(OC)c(OC)c4)cc3/C=C/c3ccccc3)cc2C)cc1OC", "note": "[compound 33, (E)-6′-(3,4-Dimethoxyphenyl)-5′-methyl-3-styryl-5-(3,4,5-trimethoxyphenyl)-2,3′-bipyridine]", "values": [{"measurement": "cell death / apoptosis (Annexin V and 7-AAD marking)", "setting": "CT26 cells", "result": "don't seem to be marked; also recorded: does not allow detecting significally apoptosis"}, {"measurement": "Myd88 expression", "setting": "NFκB signaling pathway; TMD8 and HBL1 DLBCL cell lines", "result": "reduces"}, {"measurement": "NFκB signaling pathway (P-p65)", "setting": "NFκB signaling pathway; TMD8 and HBL1 DLBCL cell lines", "result": "reduces; also recorded: strong decrease"}, {"measurement": "IkB phosphorylation (P-IKB)", "setting": "NFκB signaling pathway", "result": "decrease"}, {"measurement": "IC50", "setting": "human protein HSP110", "result": "58.3 ± 1.7", "unit": "µM"}, {"measurement": "P-STAT3 level", "setting": "phosphorylated STAT3", "result": "~60", "unit": "%"}, {"measurement": "hampering of cell proliferation", "setting": "SW480 cells", "result": 60, "unit": "%"}]}]}
